Assay results taken from PMC12473689, “Drug Metabolism and Pharmacokinetics of Oxazolo[4,5-c]quinoline Analogs as Novel Interleukin-33 Inhibitors” (Pharmaceutics, 2025).

What was measured:
Type in all cases: in vitro ADME
[1] = Binding in human liver S9 fraction by equilibrium dialysis (RED); conditions: equilibrium dialysis 37 °C 4 h, mean ± SD (n = 3)
Description: (§1) The nonspecific binding of KB-1517 and KB-1518 in human and mouse plasma and liver S9 fractions was determined by equilibrium dialysis using a Rapid Equilibrium Device (RED) system (Thermo Fisher Scientific, Seoul, Republic of Korea).
(§2) Working solutions (200 μM for plasma, 60 μM for S9 fractions) were prepared in 40% aqueous acetonitrile. These were diluted 20-fold into either plasma or S9 incubation buffer (1 mg/mL protein, 200 mM Tris-HCl, 2 mM MgCl2, pH 7.4) to create the final dosing solutions.
(§3) For the dialysis, RED inserts (8 kDa MWCO) were used. Into each device, 200 μL of a dosing solution was added to the sample chamber, and 350 μL of PBS was added to the buffer chamber. The plate was sealed and incubated at 37 °C for 4 h on an orbital shaker (100 rpm) to allow the system to reach equilibrium.
(§4) Following incubation, 50 μL aliquots were taken from both chambers. To ensure analytical consistency, the samples were matrix-matched: the sample chamber aliquot was mixed with 50 μL of PBS, and the buffer chamber aliquot was mixed with 50 μL of the corresponding blank matrix (plasma or S9 incubation buffer). Proteins were then precipitated by adding 200 μL of ice-cold acetonitrile containing diclofenac (1 μg/mL) as IS. The samples were subsequently vortexed, sonicated for 5 min, and centrifuged at 4000× g for 20 min. Finally, a 100 μL aliquot of the resulting supernatant was diluted with 100 μL of HPLC-grade water in a 96-well plate for subsequent LC-MS/MS analysis.

[2] = Plasma protein binding by equilibrium dialysis (RED), human plasma; conditions: equilibrium dialysis 37 °C 4 h, mean ± SD (n = 3), read-out: fu (%) plasma protein binding
Description: as §1, §2, §3, §4

[3] = Binding in mouse liver S9 fraction by equilibrium dialysis (RED); conditions: equilibrium dialysis 37 °C 4 h, mean ± SD (n = 3)
Description: as §1, §2, §3, §4

[4] = In vitro metabolic stability in pooled mouse liver S9 fraction; conditions: male, ICR; for remaining at 1 h, 3 µM / half-life at 3 µM: pH 7.4, MLS9 1 mg/mL, 3 µM compound; for remaining at 1 h, 3 µM: cofactors NADPH, UDPGA, PAPS, GSH, 37 °C, read-out: % remaining after 60 min; for half-life at 3 µM: with cofactors, one-phase decay fit, read-out: in vitro t½ (estimated); for microsomal CLint at 3 µM: pH 7.4, MLS9, CLint,u = k/(fu,S9 × [S9]), read-out: CLint,u (unbound intrinsic clearance)
Description: Metabolic stability was assessed using pooled HLS9 and MLS9 fractions. The S9 fractions (20 mg/mL) were diluted to 1 mg/mL with 0.1 M potassium phosphate buffer (pH 7.4). Stock solutions of KB-1517 and KB-1518 (10 mM in DMSO) were diluted in 50% aqueous acetonitrile to prepare working solutions (120 µM). A Tris mix buffer containing 1 M Tris-HCl (pH 7.4), 10 mM MgCl2, and 125 µg/mL alamethicin was prepared. A combined cofactor solution was prepared in 0.1 M potassium phosphate buffer (pH 7.4): 10 mM NADPH, 5 mM UDPGA, 1 mM PAPS, and 25 mM GSH.
The incubation mixture (final volume 200 µL) contained: 125 µL of deionized water, 40 µL of Tris mix buffer, 10 µL of 20 mg protein/mL S9 fraction (final concentration 1 mg protein/mL), and 5 µL of the test compound working solution (final concentration 3 µM). The final concentrations of DMSO and acetonitrile were 0.03% and 1%, respectively. The mixture was pre-incubated at 37 °C for 5 min in a shaking water bath. The reaction was initiated by adding 20 µL of the combined cofactor solution (final concentrations: 1 mM NADPH, 0.5 mM UDPGA, 0.1 mM PAPS, 2.5 mM GSH). Control incubations were performed without the cofactor mixture (replaced with buffer) and at 0 min (quenched immediately after adding cofactors). Incubations were carried out at 37 °C for 0, 15, 30, and 60 min (for stability) or 60 min (for metabolite ID). Reactions were terminated by adding 200 µL of ice-cold acetonitrile containing IS (diclofenac).
Terminated samples were sonicated (5 min), vortexed (1500 rpm, 5 min), and centrifuged (3000 rpm, 20 min, 4 °C). An aliquot (150 µL) of the supernatant was transferred to a 96-well plate for LC-MS/MS analysis as described in Section 2.6.2.
Noncompartmental analysis (NCA) was performed using PKSolver to determine pharmacokinetic parameters from the plasma concentration-time data. Parameters included: maximum plasma concentration (Cmax), time to reach Cmax (tmax), terminal elimination half-life (t1/2), area under the plasma concentration-time curve from time zero to the last measurable concentration (AUClast), area under the plasma concentration-time curve extrapolated to infinity (AUCinf), total body clearance (CL), and volume of distribution at steady state (Vss). Oral bioavailability (F) was calculated as: F(%) = (AUCinf,PO/AUCinf,IV)× (DoseIV/DosePO)×100. Due to the anomalous profile of KB-1517, AUClast was used for its F calculation, and some parameters (t½, CL, Vss for IV; AUCinf for PO) could not be reliably determined (ND). The metabolic rate constant (k) was determined by fitting the in vitro metabolic stability data to a one-phase decay equation via nonlinear regression using GraphPad Prism (Version 10, GraphPad Software, Boston, MA, USA). The in vitro t1/2 was calculated from the equation t1/2 = ln(2)/k. Subsequently, the unbound intrinsic clearance (CLint,u) was calculated as follows: CLint,u = k/(fu,S9 × [S9]), where fu,S9 is the fraction unbound in the S9 incubation and [S9] is the S9 protein concentration.
The metabolic stability of KB-1517 and KB-1518 was evaluated by incubating the compounds (3 µM) with HLS9 and MLS9 fractions (1 mg/mL) in the presence of a comprehensive set of phase I and phase II cofactors (NADPH, UDPGA, PAPS, and GSH) for up to 60 min.

[5] = Plasma protein binding by equilibrium dialysis (RED), mouse plasma; conditions: male, ICR, equilibrium dialysis 37 °C 4 h, mean ± SD (n = 3), read-out: fu (%) plasma protein binding
Description: as §1, §2, §3, §4

Row | SMILES | fu (%) in liver S9 fractions ([1]; human liver S9, 1 mg/mL protein) | fraction unbound at 4 h, 3 µM ([1]; human, liver S9 fraction, pH 7.4, human liver S9, 1 mg/mL protein, read-out: fu (%) in liver S9 fractions) | fraction unbound at 4 h, 10 µM [2] | fraction unbound at 4 h, 3 µM ([3]; ICR, mouse, liver S9 fraction, pH 7.4, mouse liver S9, 1 mg/mL protein, read-out: fu (%) in liver S9 fractions) | fu (%) in liver S9 fractions ([3]; mouse liver S9, 1 mg/mL protein) | remaining at 1 h, 3 µM [4] | half-life at 3 µM [4] | microsomal CLint at 3 µM [4] | fraction unbound at 4 h, 10 µM [5]
1 | CN(C)CCn1c(=O)c2nc(-c3ccc(C(F)(F)F)cc3)oc2c2ccccc21 [KB-1517, 5-(2-(dimethylamino)ethyl)-2-(4-(trifluoromethyl)phenyl)oxazolo[4,5-c]quinolin-4(5H)-one] | 19.1 ± 0.7% | < 0.2 | < 0.02 | < 0.2 | 15.1 ± 0.8% | 67.2 ± 1% | 3.06 h | 25 µL/min/mg | < 0.02
2 | CN(C)CCOc1nc2ccccc2c2oc(-c3ccc(C(F)(F)F)cc3)nc12 [KB-1518, N,N-dimethyl-2-((2-(4-(trifluoromethyl)phenyl)oxazolo[4,5-c]quinolin-4-yl)oxy)ethan-1-amine] |  |  |  |  |  | 57.2 ± 1.3% | 1.24 h | 216 µL/min/mg | 
